Assays:
HT-1080-FAP cells [1] = assay: internalization experiments in HT-1080-FAP cells; format: cell-based, human; details: 10 min
Description: (§1) The human fibrosarcoma cell lines HT-1080 and HT-1080-FAP transferred with human FAP gene were both cultured in Dulbecco modified Eagle medium supplemented with 10% fetal bovine serum (Gibco, USA) at 37℃/5% carbon dioxide. For cell uptake experiments, HT-1080-FAP cells (~ 1 × 10^5/well) or HT-1080 (~ 1 × 10^5/well) were seeded in 24-well plates for 24–48 h and incubated at 37℃ with radiolabeled compounds (74 kBq/well) in 0.5 mL of serum-free medium for indicated times. Non-specific binding was determined by co-incubating with 100 μM FAP inhibitor UAMC1110. For competitive FAP binding assays, HT-1080-FAP cells were incubated with [^177Lu]Lu-FAPI-04 (74 kBq/well) in the presence of different concentrations (10^−3–10^4 nM) of competing non-radioactive ligands. For internalization experiments, the radiotracer-incubated cells were washed twice with PBS (pH 7.4), followed by glycine–HCl (0,05 M, pH = 2.8) solution to distinguish between cell surface–bound (acid-releasable) and internalized (acid-resistant) radioligand. For efflux experiments, cells were preincubated with [^177Lu]21 or [^177Lu]Lu-FAPI-04 for 1 h and subsequently incubated at 37 °C in a medium free of radiotracer and serum for different time periods. […] Cell lysates were collected and the radioactivity was determined using a γ-counter.

[2] = tested on: HT-1080-FAP tumor-bearing mice; assay: biodistribution in HT-1080-FAP tumor-bearing mice; format: in vivo, BALB/C-nu/nu mice; details: i.v.
Description: All animal experiments were conducted in compliance with a protocol approved by the First Affiliated Hospital of Sun Yat-sen University Institutional Animal Care and Use Committee. BALB/C-nu/nu mice (4–5-week old with body weight of 16–22 g) were purchased from GemPharmatech Co., Ltd. Mice were housed under standard conditions with temperature and light control (12-h-light/12-h-dark cycle) and had free access to water and food. For the tumor model, HT-1080-FAP or HT-1080 cells (5 × 10^6) were subcutaneously injected into the right or left flank of nude mice, respectively. As the tumor diameter reached 3–4 mm, mice were treated with radioligands. Micro-PET and SPECT imaging studies, as well as biodistribution, were conducted when the tumor diameter reached 5–10 mm.
[^177Lu]21 (~ 0.925 MBq) was injected via the tail vein of HT-1080-FAP tumor-bearing mice. The animals were sacrificed at 4, 24, 48 and 96 h pi. Organs of interest were dissected, weighed and counted with a γ-counter. The data were normalized to percentage injected dose (%ID/g) with standard dilution of the initial dose. The biodistribution of [^177Lu]Lu-FAPI-04 was conducted at 24 h pi for comparison.

HT-1080-FAP cells [3] = assay: efflux experiments in HT-1080-FAP cells; format: cell-based, human; details: preincubated 1 h, up to 4 h
Description: as §1

What does the source list for `CC(C)(C)[Si](F)(c1ccc(C(=O)NCC(NC(=O)CCC(C(=O)O)N2CCN(CC(=O)[O-])CCN(CC(=O)[O-])CCN(CC(=O)[O-])CC2)C(=O)NCC2CCC(C(=O)NCCCOc3ccc4nccc(C(=O)NCC(=O)N5CC(F)(F)CC5C#N)c4c3)CC2)cc1)C(C)(C)C.[177Lu+3]` (stereo not shown) [[^177Lu]21]?
internalization rate (HT-1080-FAP cells [1]): > 80%; Tumor/ Kidney ratio ([2]; 4 h pi): 2.15 ± 0.55; Tumor/Blood ratio ([2]; 4 h pi): 2.63 ± 0.23; Tumor/Liver ratio ([2]; 4 h pi): 3.98 ± 1.00; Tumor/Muscle ratio ([2]; 4 h pi): 6.36 ± 0.27; uptake in HT-1080-FAP tumor ([2]; 4 h pi): 9.82 ± 1.35 %ID/g; uptake in blood ([2]; 4 h pi): 3.73 ± 0.36 %ID/g; uptake in bone ([2]; 4 h pi): 6.76 ± 0.51 %ID/g; uptake in brain ([2]; 4 h pi): 0.14 ± 0.01 %ID/g; uptake in heart ([2]; 4 h pi): 1.97 ± 0.09 %ID/g; uptake in intestine ([2]; 4 h pi): 2.12 ± 0.5 %ID/g; uptake in kidney ([2]; 4 h pi): 4.70 ± 0.89 %ID/g; uptake in liver ([2]; 4 h pi): 2.56 ± 0.57 %ID/g; uptake in lung ([2]; 4 h pi): 3.33 ± 0.97 %ID/g; uptake in muscle ([2]; 4 h pi): 1.54 ± 0.14 %ID/g; uptake in pancreas ([2]; 4 h pi): 4.03 ± 0.93 %ID/g; uptake in skin ([2]; 4 h pi): 3.60 ± 0.56 %ID/g; uptake in spleen ([2]; 4 h pi): 1.53 ± 0.25 %ID/g; uptake in stomach ([2]; 4 h pi): 1.80 ± 0.52 %ID/g; Tumor/ Kidney ratio ([2]; 24 h pi): 1.73 ± 0.32; Tumor/Blood ratio ([2]; 24 h pi): 13.77 ± 4.99; Tumor/Liver ratio ([2]; 24 h pi): 1.84 ± 0.41; Tumor/Muscle ratio ([2]; 24 h pi): 7.03 ± 1.39; uptake in HT-1080-FAP tumor ([2]; 24 h pi): 2.98 ± 0.98 %ID/g; uptake in blood ([2]; 24 h pi): 0.22 ± 0.03 %ID/g; uptake in bone ([2]; 24 h pi): 2.46 ± 0.74 %ID/g; uptake in brain ([2]; 24 h pi): 0.02 ± 0.00 %ID/g; uptake in heart ([2]; 24 h pi): 0.61 ±0.43 %ID/g; uptake in intestine ([2]; 24 h pi): 0.37 ± 0.03 %ID/g; uptake in kidney ([2]; 24 h pi): 1.72 ± 0.45 %ID/g; uptake in liver ([2]; 24 h pi): 1.63 ± 0.44 %ID/g; uptake in lung ([2]; 24 h pi): 0.46 ± 0.11 %ID/g; uptake in muscle ([2]; 24 h pi): 0.42 ± 0.09 %ID/g; uptake in pancreas ([2]; 24 h pi): 0.69 ± 0.14 %ID/g; uptake in skin ([2]; 24 h pi): 1.07 ± 0.32 %ID/g; uptake in spleen ([2]; 24 h pi): 0.69 ± 0.13 %ID/g; uptake in stomach ([2]; 24 h pi): 0.39 ± 0.11 %ID/g; Tumor/ Kidney ratio ([2]; 48 h pi): 1.60 ± 0.19; Tumor/Blood ratio ([2]; 48 h pi): 56.58 ± 6.63; Tumor/Liver ratio ([2]; 48 h pi): 3.66 ± 0.52; Tumor/Muscle ratio ([2]; 48 h pi): 11.31 ± 1.41; uptake in HT-1080-FAP tumor ([2]; 48 h pi): 2.43 ± 0.04 %ID/g; uptake in blood ([2]; 48 h pi): 0.04 ± 0.01 %ID/g; uptake in bone ([2]; 48 h pi): 3.09 ± 0.86 %ID/g; uptake in heart ([2]; 48 h pi): 0.27 ± 0.05 %ID/g; uptake in intestine ([2]; 48 h pi): 0.12 ± 0.02 %ID/g; uptake in kidney ([2]; 48 h pi): 1.53 ± 0.21 %ID/g; uptake in liver ([2]; 48 h pi): 0.67 ± 0.11 %ID/g; uptake in lung ([2]; 48 h pi): 0.53 ± 0.4 %ID/g; uptake in muscle ([2]; 48 h pi): 0.22 ± 0.03 %ID/g; uptake in pancreas ([2]; 48 h pi): 0.35 ± 0.04 %ID/g; uptake in skin ([2]; 48 h pi): 0.58 ± 0.09 %ID/g; uptake in spleen ([2]; 48 h pi): 0.81 ± 0.18 %ID/g; uptake in stomach ([2]; 48 h pi): 0.32 ± 0.04 %ID/g; Tumor/ Kidney ratio ([2]; 96 h pi): 1.11 ± 0.04; Tumor/Blood ratio ([2]; 96 h pi): 102.33 ± 11.24; Tumor/Liver ratio ([2]; 96 h pi): 0.93 ± 0.01; Tumor/Muscle ratio ([2]; 96 h pi): 9.0 ± 1.35; uptake in HT-1080-FAP tumor ([2]; 96 h pi): 1.02 ± 0.11 %ID/g; uptake in blood ([2]; 96 h pi): 0.01 ± 0.00 %ID/g; uptake in bone ([2]; 96 h pi): 3.02 ± 0.69 %ID/g; uptake in brain ([2]; 96 h pi): 0.01 ± 0.00 %ID/g; uptake in heart ([2]; 96 h pi): 0.16 ± 0.03 %ID/g; uptake in intestine ([2]; 96 h pi): 0.11 ± 0.01 %ID/g; uptake in kidney ([2]; 96 h pi): 0.92 ± 0.13 %ID/g; uptake in liver ([2]; 96 h pi): 1.10 ± 0.12 %ID/g; uptake in lung ([2]; 96 h pi): 0.57 ± 0.34 %ID/g; uptake in muscle ([2]; 96 h pi): 0.12 ± 0.03 %ID/g; uptake in pancreas ([2]; 96 h pi): 0.15 ± 0.03 %ID/g; uptake in skin ([2]; 96 h pi): 0.35 ± 0.05 %ID/g; uptake in spleen ([2]; 96 h pi): 0.43 ± 0.07 %ID/g; uptake in stomach ([2]; 96 h pi): 0.20 ± 0.01 %ID/g; efflux (HT-1080-FAP cells [3]): slower excretion up to 4 h than [^177Lu]Lu-FAPI-04

Reference: PMC10250256, “A radiohybrid theranostics ligand labeled with fluorine-18 and lutetium-177 for fibroblast activation protein-targeted imaging and radionuclide therapy” (European Journal of Nuclear Medicine and Molecular Imaging, 2023)
